# Assays:
# [1] = system: ducksalad; assay: Test B flooded paddy test; type: in vivo, Heteranthera limosa; conditions: 1000 g ai/ha, scale 0 to 100 (0 no effect, 100 complete control)
# Method in brief: (§1)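 Read-out: visual comparison with controls, scored 0 to 100, where 100 means complete control and 0 no effect. Formulated chemicals were applied postemergence to plants 2–18 cm tall (1- to 4-leaf), or to flooded-paddy plants at the 2-leaf stage, then held 13 to 15 days under glass.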
# [2] = system: small flower umbrella sedge; assay: Test B flooded paddy test; type: in vivo, Cyperus difformis; conditions: 1000 g ai/ha, scale 0 to 100 (0 no effect, 100 complete control)
# Method in brief: as §1
# [3] = system: wheat; assay: Test B postemergence herbicide test; type: in vivo, Triticum aestivum; design: key to Wheat plant response rating: 0 = no effect, 100 = complete control
# Method in brief: (§2)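 Scale 0–100: zero equals no visible effect, 100 complete control, judged by eye relative to controls. Timing: 13 to 15 days in greenhouse post-treatment. Growth stage at spraying: two leaves (paddy) or one to four leaves, 2–18 cm (postemergence).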
# [4] = system: velvetleaf; assay: Test B pre-/postemergence herbicide test; type: in vivo, Abutilon theophrasti; conditions: for Velvetleaf plant response rating: scale 0 (no effect) to 100 (complete control)
# Method in brief: (§3)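 Herbicidal effect was judged by eye on a 0–100 scale after plants stood 13 to 15 days in the greenhouse following pre- or postemergence treatment with surfactant-containing formulations.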
# [5] = system: giant foxtail; assay: Test B pre-/postemergence herbicide test; type: in vivo, Setaria faberi; conditions: for Foxtail, Giant plant response rating: postemergence
# Method in brief: as §3
# [6] = system: pigweed; assay: Test B pre-/postemergence herbicide test; type: in vivo, Amaranthus retroflexus; conditions: for Pigweed plant response rating: scale 0 (no effect) to 100 (complete control)
# Method in brief: as §3
# [7] = system: cocklebur; assay: Test B pre-/postemergence herbicide test; type: in vivo, Xanthium strumarium; conditions: for Cocklebur plant response rating: postemergence
# Method in brief: (§4)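 Pre: seeds sown, then sprayed. Post: 1–4-leaf plants (2–18 cm) sprayed at the same time. Paddy: flooded, treated at 2-leaf stage. Formulation: non-phytotoxic solvent with surfactant. Greenhouse 13–15 days; visual 0–100 score relative to controls.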
# [8] = system: large crabgrass; assay: Test B pre-/postemergence herbicide test; type: in vivo, Digitaria sanguinalis; conditions: for Crabgrass, Large plant response rating: postemergence
# Method in brief: as §3
# [9] = system: barnyardgrass; assay: Test B flooded paddy test; type: in vivo, Echinochloa crus-galli; conditions: 1000 g ai/ha, scale 0 to 100 (0 no effect, 100 complete control)
# Method in brief: as §1
# [10] = system: rice; assay: Test B flooded paddy test; type: in vivo, Oryza sativa; conditions: 1000 g ai/ha, scale 0 to 100 (0 no effect, 100 complete control)
# Method in brief: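 Treated at 2-leaf (paddy) or 1–4-leaf, 2–18 cm (postemergence); greenhouse 13–15 d; visual score vs control, 0 none to 100 complete control; dash = not tested.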
# [11] = system: wild oat; assay: Test B postemergence herbicide test; type: in vivo, Avena fatua; conditions: scale 0 (no effect) to 100 (complete control)
# Method in brief: as §2
# [12] = system: morningglory; assay: Test B pre-/postemergence herbicide test; type: in vivo, Ipomoea coccinea; conditions: for Morningglory plant response rating: scale 0 (no effect) to 100 (complete control)
# Method in brief: as §4
# [13] = system: lambsquarters; assay: Test B pre-/postemergence herbicide test; type: in vivo, Chenopodium album; conditions: for Lambsquarters plant response rating: scale 0 (no effect) to 100 (complete control)
# Method in brief: as §3
# [14] = system: Surinam grass; assay: Test B pre-/postemergence herbicide test; type: in vivo, Urochloa decumbens; conditions: for Surinam Grass plant response rating: scale 0 (no effect) to 100 (complete control)
# Method in brief: as §3
# [15] = system: barnyardgrass; assay: Test B pre-/postemergence herbicide test; type: in vivo, Echinochloa crus-galli; conditions: for Barnyardgrass plant response rating: postemergence
# Method in brief: as §4
# [16] = 125 g ai/ha, 0 is no effect, 100 is complete control, preemergence
# [17] = 125 g ai/ha, visual rating, postemergence
# [18] = 125 g ai/ha, visual rating, scale 0 (no effect) to 100 (complete control)
# [19] = 500 g ai/ha, scale 0 to 100, 0 is no effect, 100 is complete control
smiles,measurement,setting,value
CCNC(=O)c1cccc(NC(=O)c2nn(C(C)(C)CC)nc2CC)c1 [Compound 376],Ducksalad plant response rating,[1],90
same,"Sedge, Umbrella plant response rating",[2],80
same,Wheat plant response rating,"[3]; 125 g ai/ha, visual rating, scale 0 (no effect) to 100 (complete control), postemergence",10
same,Wheat plant response rating,"[3]; 500 g ai/ha, scale 0 to 100, 0 no effect, 100 complete control, preemergence",90
same,Wheat plant response rating,"[3]; Postemergence, 500 g ai/ha, scale 0 (no effect) to 100 (complete control)",20
same,"Plant response rating (0 to 100 scale), Velvetleaf",[4]; [16],10
same,Velvetleaf plant response rating,[4]; [17],20
same,Velvetleaf plant response rating,"[4]; Postemergence, 500 g ai/ha",40
same,"Plant response rating (0 to 100 scale), Foxtail, Giant",[5]; [16],70
same,"Foxtail, Giant plant response rating",[5]; [18],30
same,"Foxtail, Giant plant response rating",[5]; [19],60
same,"Plant response rating (0 to 100 scale), Pigweed",[6]; [16],100
same,Pigweed plant response rating,[6]; [17],70
same,Pigweed plant response rating,"[6]; Postemergence, 500 g ai/ha",90
same,"Plant response rating (0 to 100 scale), Cocklebur",[7]; [16],0
same,Cocklebur plant response rating,[7]; [18],20
same,Cocklebur plant response rating,[7]; [19],30
same,"Plant response rating (0 to 100 scale), Crabgrass, Large",[8]; [16],80
same,"Crabgrass, Large plant response rating",[8]; [18],10
same,"Crabgrass, Large plant response rating",[8]; [19],50
same,Barnyardgrass plant response rating,[9],70
same,Rice plant response rating,[10],60
same,"Oat, Wild plant response rating",[11]; [17],20
same,"Oat, Wild plant response rating","[11]; Postemergence, 500 g ai/ha",40
same,"Plant response rating (0 to 100 scale), Morningglory",[12]; [16],10
same,Morningglory plant response rating,[12]; [17],30
same,Morningglory plant response rating,"[12]; Postemergence, 500 g ai/ha",60
same,"Plant response rating (0 to 100 scale), Lambsquarters",[13]; [16],100
same,Lambsquarters plant response rating,[13]; [17],70
same,Lambsquarters plant response rating,"[13]; Postemergence, 500 g ai/ha",90
same,"Plant response rating (0 to 100 scale), Surinam Grass",[14]; [16],40
same,Surinam Grass plant response rating,[14]; [17],10
same,Surinam Grass plant response rating,"[14]; Postemergence, 500 g ai/ha",20
same,"Plant response rating (0 to 100 scale), Barnyardgrass",[15]; [16],80
same,Barnyardgrass plant response rating,[15]; [18],10
same,Barnyardgrass plant response rating,[15]; [19],40

# Source: US20060069132A1, “Azolecarboxamide herbicides” (priority 2004, published 2006)
